Test results reported in US20160032401A1, “Glycine, Mitochondrial One-Carbon Metabolism, and Cancer” (THE GENERAL HOSPITAL CORPORATION, priority 2013, published 2016).
Residue numbers refer to the chain shown, from its start. Read-outs that look alike come from different tables or passages of the source.

What was measured:
MTHFD2 [1] = biological target: T1, MTHFD2 (Homo sapiens, UniProt P13995); details: published values (Yang and MacKenzie 1993); cited from earlier work
T1 construct: 12 amino acids were removed from the unstructured C-terminus of the protein, and a 6-histidine tag added to facilitate purification; 6-histidine tag (C); made in house; host or cells: E. coli One Shot BL21 Star (DE3), pET-30a(+)
T1 sequence (P13995 with tags, fused parts or gaps): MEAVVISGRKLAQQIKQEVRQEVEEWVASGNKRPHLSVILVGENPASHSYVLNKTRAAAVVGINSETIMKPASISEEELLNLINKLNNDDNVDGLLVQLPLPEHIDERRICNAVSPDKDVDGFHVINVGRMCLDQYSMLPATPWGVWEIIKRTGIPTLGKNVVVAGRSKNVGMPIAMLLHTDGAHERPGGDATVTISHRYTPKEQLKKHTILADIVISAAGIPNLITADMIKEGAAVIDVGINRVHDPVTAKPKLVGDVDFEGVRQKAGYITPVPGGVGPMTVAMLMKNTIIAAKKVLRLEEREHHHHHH

MTHFD2 [2] = biological target: T1, MTHFD2; test: Enzyme kinetics of recombinant MTHFD2 in the modified 384 well assay; type: biochemical; details: recombinant MTHFD2, 384 well plate format; read-out: Km, Measured
Protocol: (§1) The NAD-dependent methylenetetrahydrofolate dehydrogenase/cyclohydrolase activity assay employed in this microtiter well based screen is based on previously published enzymatic assays, with modifications as listed below. The assay was initially reported by Scrimgeour and Huennekens, Biochem. Biophys. Res. Commun. 1960, 2:230-233 and subsequently by Mejia and MacKenzie, The Journal of biological chemistry. 1985; 260:14616-14620). The assay was performed as described with slight modifications (reported assay concentrations in the Mejia et al. assay are provided in brackets below). The modified assay utilized 50 ng of recombinant MTHFD2 protein produced as described in Example 11 per well in 384 well format. In addition, the present assay utilized 30 […], at pH 7.5 (7.3), with 150 uM formaldehyde (2.5 mM), 150 uM tetrahydrofolate (250 uM) and 6 mM MgCl (5 mM). No 2-mercaptoethanol or reducing agents were used in the present assay, which is crucial for detection of cysteine modifying compounds as potential enzyme inhibitors. The assay employed for high-throughput screening for chemical inhibitors used the final endpoint measure of formation of 5,10-methenyltetrahydrofolate by spectrophotometric absorbance at 340 nm.

NCI-60 cancer cell lines = test: Association between glycine consumption and compound sensitivity (GI50) across the 60 cell lines; type: cell-based, human; details: NCI public data, FIG. 3
From the text: Compound sensitivity data for glutathione biosynthesis and de novo purine biosynthesis inhibitors was obtained from the NCI data repository (October 2009 release). Compound sensitivity was quantified using the GI50 measure (Shoemaker, Nat Rev Cancer. 2006; 6:813-823), defined as the compound concentration inhibiting cell growth by 50%. For those compounds in which multiple experiments with different concentration ranges were available, the experiment with the least degree of saturation was used.
Given the observation that glycine consumption is correlated to rapid cancer cell proliferation (see Examples 1-5, above), the present inventors sought to determine whether glycine consumption predicts sensitivity to particular chemotherapeutic agents. The association between glycine update and sensitivity to 3851 annotated small molecules (data provided to the public by NCI) was examined bioinformatically across the 60 cell lines.

MTHFD2 C166S mutant = biological target: T2, MTHFD2 C166S mutant (Homo sapiens, UniProt P13995, C166S); test: Same activity assay on MTHFD2 C166 cysteine to serine mutant; type: biochemical
T2 construct: 12 amino acids were removed from the unstructured C-terminus of the protein, and a 6-histidine tag added to facilitate purification; 6-histidine tag (C); made in house
T2 sequence (P13995 with tags, fused parts or gaps C166S): T1 sequence (P13995 with tags, fused parts or gaps) with C132S
Protocol: as §1, with “nm. […]” for “nm.”

MTHFD2 C145S mutant = biological target: T3, MTHFD2 C145S mutant (Homo sapiens, UniProt P13995, C145S); test: Same activity assay on MTHFD2 C145 cysteine to serine mutant; type: biochemical
T3 construct: 12 amino acids were removed from the unstructured C-terminus of the protein, and a 6-histidine tag added to facilitate purification; 6-histidine tag (C); made in house
T3 sequence (P13995 with tags, fused parts or gaps C145S): T1 sequence (P13995 with tags, fused parts or gaps) with C111S
Protocol: as §1, with “nm. […]” for “nm.”

[3] = biological target: T4, recombinant MTHFD2 protein (human, wild type) (Homo sapiens, UniProt P13995); test: NAD-dependent methylenetetrahydrofolate dehydrogenase/cyclohydrolase activity assay, 384 well, no reducing agents; type: biochemical; details: for inhibition of MTHFD2 enzyme in high throughput screen: screen of about 5,100 small molecules, biological duplicate, no reducing agents
T4 construct: 12 amino acids were removed from the unstructured C-terminus of the protein, and a 6-histidine tag added to facilitate purification; 6-histidine tag (C); made in house; host or cells: E. coli One Shot BL21 Star (DE3), pET-30a(+)
T4 sequence (P13995 with tags, fused parts or gaps): T1 sequence (P13995 with tags, fused parts or gaps)
Protocol: as §1
The assay described in Example 12 was used to screen a library of about 5,100 small molecule agents in the Prestwick chemical library, Known Bioactives Library and Library of Pharmacologically Active Compounds, in biological duplicate. […] Several of the high scoring inhibitors are known cysteine modifiers that could in principle inhibit enzyme activity by modification of cysteine residues.
Three mutant MTHFD2 constructs were generated with Agilent QuikChange Lightening, with cysteine to serine mutations at C145, C166 or both C145/C166. These mutants were retested with three of the compounds identified in the secondary screen (6-hydroxy-DL-DOPA, Celastrol, and Ebselen). […] Given the identification of these cysteine residues, additional structure/medicinal chemistry may be employed to specifically design small molecules that take advantage of these cysteine residues and inhibit MTHFD2 with greater selectivity.

[4] = biological target: T5, MTHFD2 C145S/C166S mutant (Homo sapiens, UniProt P13995, C145S/C166S); test: Same activity assay on MTHFD2 C145/C166 double mutant; type: biochemical
T5 construct: 12 amino acids were removed from the unstructured C-terminus of the protein, and a 6-histidine tag added to facilitate purification; 6-histidine tag (C); made in house
T5 sequence (P13995 with tags, fused parts or gaps C145S/C166S): T1 sequence (P13995 with tags, fused parts or gaps) with C111S, C132S
Protocol: as §1, with “nm. […]” for “nm.”

LOX IMVI cells = test: Rescue of SHMT2-silenced LOX IMVI cells grown in the absence of glycine; type: cell-based, human; details: supplement 140 μM
Protocol: (§2) For lentiviral infection, 100,000 cells were seeded in a 6-well dish in 2 mL medium containing 8 μg/ml Polybrene and 100 μl viral supernatant added. Plates were centrifuged at 800×g for 30 minutes at 37° C., and the medium replaced. Twenty-four hours later, cells were selected for infection by the addition of 2 μg/ml puromycin. […] Cells were passaged for >10 cell divisions to ensure stable expression of the shRNA construct. For assessment of SHMT2 knockdown, mRNA was isolated from cells using RNeasy kit (Qiagen), and qRT-PCR was performed for SHMT2 and HPRT1 using the Taqman assay (Applied Biosystems assay ID Hs00193658_m1* and Hs01003267_m1*, respectively), according to manufacturer's instructions. For experiments using A498 and LOX IMVI, cells were infected with either sh1-4 or shCtrl lentivirus and stable expressing cells selected as above. For experiments utilizing NCI-H226, HS-578T, TK10, EKVX, OVCAR-8, U251, A549, HT29, NCI-460 and HCT-116, cells were infected with either sh4 or shCtrl lentivirus and stable expressing cells selected as above. […] For all experiments, cells were counted and cell counts expressed as fold change over time. […] Cells were counted at regular time intervals as described above. All experiments were performed using at least 10 independent cell cultures.

[5] = test system: 10 additional primary cancer cell lines from the NCI-60 panel; details: FIG. 1G
Protocol: as §2

## Nc1nc2c(c(=O)[nH]1)N1CN(c3ccc(C(=O)N[C@@H](CCC(=O)O)C(=O)O)cc3)CC1CN2 (some centres unmarked) [5,10 CH2—THF]
MTHFD2 [1]
  Km: 6.7 µM
MTHFD2 [2]
  Km: 4.1 µM

## O=c1[nH]cc(F)c(=O)[nH]1 [5-fluorouracil]
NCI-60 cancer cell lines
  sensitivity of glycine consuming cells to the agent (correlation of glycine consumption with sensitivity): not more sensitive

## NC(Cc1cc(O)c(O)cc1O)C(=O)O (stereo not drawn) [6-hydroxy-DL DOPA]
MTHFD2 C166S mutant
  inhibition of C166 mutant MTHFD2: inhibited
MTHFD2 C145S mutant
  inhibition of C145 mutant MTHFD2: inhibited
[3]; plus DTT
  inhibition of wild type MTHFD2 with addition of the reducing agent DTT: not antagonized
[3]; retest with mutants, FIGS. 9A-C
  inhibition of wild type MTHFD2: inhibited
[3]
  inhibition of MTHFD2 enzyme in high throughput screen: inhibit the enzyme
[4]
  inhibition of C145/C166 double mutant MTHFD2: inhibited

## O=C1Nc2ccc(I)cc2/C1=C/c1cc(Br)c(O)c(Br)c1 [GW5074]
[3]
  inhibition of MTHFD2 enzyme in high throughput screen: inhibit the enzyme

## NC(=O)c1ccc[n+]([C@@H]2O[C@H](COP(=O)([O-])OP(=O)(O)OC[C@H]3O[C@@H](n4cnc5c(N)ncnc54)[C@H](O)[C@@H]3O)[C@@H](O)[C@H]2O)c1 [NAD+]
MTHFD2 [1]
  Km: 56.4 µM
MTHFD2 [2]
  Km: 51.5 µM

## Clc1ccc(C(c2ccc(Cl)cc2)n2cc[n+](CC(OCc3ccc(Cl)cc3Cl)c3ccc(Cl)cc3Cl)c2)cc1 (centres unmarked) [calmidazolium chloride]
[3]
  inhibition of MTHFD2 enzyme in high throughput screen: inhibit the enzyme

## O=CO [formate]
LOX IMVI cells
  rescue of proliferation of SHMT2-silenced LOX IMVI cells: failed to rescue

## NCC(=O)O [glycine]
[5]
  rescue by addition of extracellular glycine in rapidly proliferating SHMT2-silenced cancer cells: rescued
LOX IMVI cells
  rescue of proliferation of SHMT2-silenced LOX IMVI cells: rescued

## NC(=O)CI [iodoacetamide]
[3]
  inhibition of MTHFD2 enzyme in high throughput screen: inhibit the enzyme

## CN(Cc1cnc2nc(N)nc(N)c2n1)c1ccc(C(=O)N[C@@H](CCC(=O)O)C(=O)O)cc1 [methotrexate, Glutamic acid, N-[p-[[(2,4-diamino-6-pteridinyl)methyl]methylamino]benzoyl]-, L-(+)-(8CI)]
NCI-60 cancer cell lines
  sensitivity of glycine consuming cells to the agent (correlation of glycine consumption with sensitivity): uniquely sensitive

## O=C1C=CC(=O)C=C1 [para-benzoquinone]
[3]
  inhibition of MTHFD2 enzyme in high throughput screen: inhibit the enzyme

## C=CC1=C(C)c2cc3[nH]c(cc4nc(cc5[nH]c(cc1n2)c(C)c5CCC(=O)O)C(CCC(=O)O)=C4C)c(C)c3C=C [protoporphyrin IX disodium]
[3]
  inhibition of MTHFD2 enzyme in high throughput screen: inhibit the enzyme
